Laboratory results: US20090257987A1, “Method of generating dopamine-secreting cells” (Ramot At Tel Aviv University Ltd., priority 2008, published 2009)

Key:
human MSCs [1] = assay: Western blot analysis of TH protein expression after differentiation protocols; type: cell-based; settings: result in words
Experimental: MSC isolation, culture, and characterization: Fresh bone marrow aspirates harvested from the iliac crests of adult donors (age 19-76) were diluted with Hanks' balanced salt solution. Mononuclear cells were isolated by centrifugation in Unisep-Maxi tubes (Novamed, Jerusalem, Israel) by density gradient. The cells were then plated in Dulbecco's Modified Eagle's Medium (DMEM) supplemented with 15% fetal bovine serum (FBS), 2 mM glutamine, 100 μg/ml streptomycin, 100 units/ml penicillin, 12.5 units/ml nystatin (Biological Industries, Beit HaEmek, Israel) in polystyrene plastic 75-cm^2 tissue-culture flasks. After 24 hours, nonadherent cells were removed. The medium was changed every 3-4 days. Adherent cells were cultured to 70%-90% confluence and reseeded at a density of 5,000-10,000 cells/cm^2. The cells were maintained at 37° C. in a humidified 5% CO2 incubator. The MSCs were characterized for their cell-surface phenotype and their mesenchymal differentiation capacity, as previously described (Blondheim er al., 2006, Stem Cells Dev 15:141-164).
(§1) Induction of differentiation: The differentiation protocol was composed of 2 steps. In step 1, cells were transferred to serum-free medium (DMEM) supplemented with 2 mM glutamine, 100 μg/ml streptomycin, 100 units/ml penicillin, 12.5 units/ml nystatin (Biological Industries), N2 supplement (Invitrogen, New Haven, Conn.) and 20 ng/ml fibroblast growth factor 2 and epidermal growth factor (both from R&D Systems, Minneapolis, Minn.) for 48-72 hours. In step 2, the medium was changed to Basic induction medium containing Neurobasal, B27 (both from Invitrogen), in addition to 1 mM dibutyryl cyclic AMP (dbcAMP), 3-isobutyl-1-methyl-xanthine (IBMX), and 200 μM ascorbic acid (all from Sigma, St Louis, Mo.). The following factors were added to the Basic induction medium in different combinations: brain-derived neurotrophic factor (BDNF; 50 ng/ml), glial-derived neurotrophic factor (GDNF;10 ng/ml), neurturin (100 ng/ml), neurotrophin 3 (NT3; 50 ng/ml), and fibroblast growth factor 8 (FGF8; 100 ng/ml (all from Cytolab, Rehovot, Israel); transforming growth factor β3 (TGFβ3; 2 ng/ml), sonic hedgehog (Shh; 500 ng/ml, both from R&D); estrogen (0.1 μM, Sigma); and all-trans-retinoic acid (RA; 0.1 μM, Sigma).
Western blot: Total protein was extracted by suspending the harvested cells in lysis buffer containing 10 mM Tris base (U.S. Biochemical Corporation, Cleveland, Ohio), 5 mM EDTA (Merck, Whitehouse Station, N.J.), 140 mM sodium chloride (NaCl; BioLab, Jerusalem, Israel), 10 mM sodium fluoride (NaF; Sigma), 0.5% NP 40 (U.S. Biochemical Corporation), and 1 μM phenylmethylsulfonyl fluoride (PMSF; Sigma). Following incubation on ice for 30 minutes, the mixture was centrifuged and the supernatants were collected. Protein content was determined by the BCA protein assay kit (Pierce, Rockford, Ill.). Twenty-five micrograms of protein from each sample were subjected to sodium dodecyl-sulfate (SDS)-polyacrylamide gel electrophoresis (PAGE) (12.5% acrylamide), followed by electrophoretic transfer to nitrocellulose membrane (Schleicher & Schuell, Dassel, Germany). Membranes were probed by mouse anti-TH (1:10,000, Sigma) and mouse anti β-actin (1:10,000, Chemicon, Billerica, Mass.) and then by goat anti-mouse horseradish peroxidase conjugated antibody (1:10,000) (Jackson, West Grove, Pa.) and rabbit anti-emerin (1:5,000, Santa Cruz Biotechnology, Santa Cruz, Calif.), followed by goat anti-rabbit horseradish peroxidase conjugated secondary antibody (1:10,000, Sigma). Adequate controls included HeLa cells (ATCC, Manassas, Va.) as negative control and neuroblastoma M17 cells (BE (2)-M17, ATCC) as positive control. Proteins of interest were detected using the enhanced Super Signal® chemiluminescent detection kit (Pierce).

human MSCs [2] = assay: Cell death in culture on supplementation of antioxidants; type: cell-based; settings: antioxidant supplementation of differentiation medium; data not shown
Experimental: as §1

Molecule: estrogen [+estrogen, reference compound]
- TH protein expression level normalized to actin (human MSCs [1]): directly affected the TH protein expression level

Molecule: CC(=O)N[C@@H](CS)C(=O)O [NAC, N-acetylcysteine, reference compound]
- TH protein expression level normalized to actin (human MSCs [1]): did not facilitate upregulation
- cell death in the culture (human MSCs [2]): higher levels of cell death

Molecule: COc1ccc(O)c(C(C)(C)C)c1 [BHA, butylated hydroxyanisole, reference compound]
- TH protein expression level normalized to actin (human MSCs [1]): did not facilitate upregulation
- cell death in the culture (human MSCs [2]): higher levels of cell death

Molecule: sonic hedgehog [+SHH]
- TH protein expression level normalized to actin (human MSCs [1]): directly affected the TH protein expression level

B1: transforming growth factor β3 (protein, UniProt P10600 301-412, looked up)
Transforming growth factor …: ALDTNYCFRNLEENCCVRPLYIDFRQDLGWKWVHEPKGYYANFCSGPCPYLRSADTTHSTVLGLYNTLNPEASASPCCVPQDLEPLTILYYVGRTPKVEQLSNMVVKSCKCS
notes: transforming growth factor β3 (2 ng/ml) added to the Basic induction medium
- TH protein expression level normalized to actin (human MSCs [1]): directly affected the TH protein expression level

B2: glial-derived neurotrophic factor (protein, UniProt P39905 78-211, looked up)
Glial cell line-derived …: SPDKQMAVLPRRERNRQAAAANPENSRGKGRRGQRGKNRGCVLTAIHLNVTDLGLGYETKEELIFRYCSGSCDAAETTYDKILKNLSRNRRLVSDKVGQACCRPIAFDDDLSFLDDNLVYHILRKHSAKRCGCI
notes: glial-derived neurotrophic factor (10 ng/ml) added to the Basic induction medium
- TH protein expression level normalized to actin (human MSCs [1]): directly affected the TH protein expression level
